From ChEMBL document CHEMBL1138246, “Ester prodrugs of cyclic 1-(S)-[3-hydroxy-2-(phosphonomethoxy)propyl]-5-azacytosine: synthesis and antiviral activity” (J Med Chem, 2007)
Converted amounts (≈) assume the structure as drawn.

System: Vaccinia virus
Type: functional, organism-based
Details: Orthopoxvirus vaccinia, Lederle, HEL

Point of comparison: Nc1ncn(C[C@@H](CO)OCP(=O)(O)O)c(=O)n1, EC50 2.16 µg/mL (≈ 7.71 µM). Against it:
- CC(C)(C)C(=O)OCOP1(=O)CO[C@@H](Cn2cnc(N)nc2=O)CO1 (some centres not stated) — 2.7-fold lower, 0.79 µg/mL (≈ 2.1 µM)
- Nc1ncn(C[C@H]2COP(=O)(O)CO2)c(=O)n1 — within 1.5-fold, 2.12 µg/mL (≈ 8.09 µM)
- Nc1ccn(C[C@@H](CO)OCP(=O)(O)O)c(=O)n1.O.O [CIDOFOVIR] — within 1.5-fold, 3.09 µg/mL
- CCCCCCCCCCCCCCCCOCCOP1(=O)CO[C@@H](Cn2cnc(N)nc2=O)CO1 (some centres not stated) — 58-fold lower, 0.037 µg/mL (≈ 0.0697 µM)
- CCCCCCCCCCCCCCCCCCOP1(=O)CO[C@@H](Cn2cnc(N)nc2=O)CO1 (some centres not stated) — 2.1-fold higher, 4.45 µg/mL (≈ 8.65 µM)
- Nc1ccn(C[C@H]2COP(=O)(O)CO2)c(=O)n1 [CYCLIC CIDOFOVIR] — within 1.5-fold, 2.78 µg/mL (≈ 10.6 µM)
